Results on one molecule are retold here after publication PMC6151709, “Immobilization of Moniliella spathulata R25L270 Lipase on Ionic, Hydrophobic and Covalent Supports: Functional Properties and Hydrolysis of Sardine Oil” (Molecules : A Journal of Synthetic Chemistry and Natural …, 2017).

This test relates to T1, M. spathulata R25L270 lipase.
T1 construct: native secreted enzyme; crude culture supernatant (Macauba cake medium), not purified here; free enzyme
Kind of test: spectrophotometric release of p-nitrophenol at […] nm. The settings on record: free enzyme, crude culture supernatant; pH 8.0, 37 °C; pNPP 0.1-1 mM; Triton X-100, gum arabic, 2-propanol in the substrate solution; read-out: Michaelis Constant KM. The test is classed as biochemical, Moniliella spathulata.

As to `CCCCCCCCCCCCCCCC(=O)Oc1ccc([N+](=O)[O-])cc1` [p-nitrophenylpalmitate], the Km came to 1920 µM.

As usually defined, the Km is the concentration of substrate that gives half-maximal velocity.
